Test results published in patent US20100222319A1, “NICOTINAMIDE DERIVATIVES, PREPARATION THEREOF AND THERAPEUTIC USE THEREOF” (SANOFI-AVENTIS, priority 2007, published 2010).

Assays:
[1] = test system: PC3 (ATCC-CRL1435); test: MTS cell proliferation and viability test on PC3 tumour line; assay type: cell-based; conditions: incubating the test compound for 72 hours, read-out: IC50 PC3 (concentration which results in 50% loss of cell proliferation and viability)
Method: (§1) The compounds described in Table I have formed the subject of pharmacological trials which make it possible to determine the anticancer activity. They were tested in vitro on the following tumour lines: HCT116 (ATCC-CCL247) and PC3 (ATCC-CRL1435). The cell proliferation and viability were determined in a test using 3-(4,5-dimethylthiazol-2-yl)-5-(3-carboxymethoxyphenyl)-2-(4-sulphophenyl)-2H-tetrazolium (MTS) according to Fujishita T. et al., Oncology, 2003, 64(4), 399-406. In this test, the mitochondrial capacity of the living cells to convert MTS to a coloured compound after incubating the test compound for 72 hours is measured. The concentration of compound which results in 50% loss of cell proliferation and viability is recorded as IC50.

[2] = test system: HCT116 (ATCC-CCL247); test: MTS cell proliferation and viability test on HCT116 tumour line; assay type: cell-based; conditions: Homo sapiens, HCT-116, incubating the test compound for 72 hours, read-out: IC50 HCT116 (concentration which results in 50% loss of cell proliferation and viability)
Method: as §1

Row | Structure (SMILES) | melting point [°C] | IC50 [1] [nM] | IC50 [2] [nM]
1 | CCNc1nc(-c2ccc(NC(=O)NCc3cccnc3)cc2)ccc1C(=O)NC [Compound 1, 2-Ethylamino-N-methyl-6-[4-(3-pyridin-3-ylmethyl-ureido)-phenyl]-nicotinamide] | 260 to 263 |  | 
2 | CNC(=O)c1ccc(-c2ccc(NC(=O)NCc3cccnc3)cc2)nc1N [Compound 3, 2-Amino-N-methyl-6-[4-(3-pyridin-3-ylmethyl-ureido)-phenyl]-nicotinamide] | 234 to 236 |  | 
3 | CCNc1nc(-c2ccc(NC(=O)NCc3cccnc3)cc2)ccc1C(=O)NCCN1CCNCC1 [Compound 5, 2-Ethylamino-N-(2-piperazin-1-yl-ethyl)-6-[4-(3-pyridin-3-ylmethyl-ureido)-phenyl]-nicotinamide] |  | 0.8 | 1.8
4 | CCNc1nc(-c2ccc(NC(=O)NCc3cccnc3)cc2)ccc1C(=O)NCCN(C(C)C)C(C)C [Compound 8, N-(2-Diisopropylamino-ethyl)-2-ethylamino-6-[4-(3-pyridin-3-ylmethyl-ureido)-phenyl]-nicotinamide] | 160 to 162 |  | 
5 | CNC(=O)c1ccc(-c2ccc(NC(=O)NCc3cccnc3)cc2)nc1NCc1cccnc1 [Compound 12, N-Methyl-2-[(pyridin-3-ylmethyl)-amino]-6-[4-(3-pyridin-3-ylmethyl-ureido)-phenyl]-nicotinamide] |  | 113 | 19
6 | CCNc1nc(-c2ccc(NC(=O)NCc3cccnc3)cc2)ccc1C(=O)NCCN1CCCCC1 [Compound 13, 2-Ethylamino-N-(2-piperidin-1-yl-ethyl)-6-[4-(3-pyridin-3-ylmethyl-ureido)-phenyl]-nicotinamide] | 164 to 165 | 0.2 | 0.1
7 | CNC(=O)c1ccc(-c2ccc(NC(=O)NCc3cccnc3)cc2)nc1NCc1ccncc1 [Compound 15, N-Methyl-2-[(pyridin-4-ylmethyl)-amino]-6-[4-(3-pyridin-3-ylmethyl-ureido)-phenyl]-nicotinamide] | 218 to 219 |  | 
8 | CNC(=O)c1ccc(-c2ccc(NC(=O)NCc3cccnc3)cc2)nc1NCCN1CCCCC1 [Compound 17, N-Methyl-2-(2-piperidin-1-yl-ethylamino)-6-[4-(3-pyridin-3-ylmethyl-ureido)-phenyl]-nicotinamide] |  | 266 | 294
9 | CNC(=O)c1ccc(-c2ccc(NC(=O)NCc3cccnc3)cc2)nc1NCc1ccccc1 [Compound 19, 2-Benzylamino-N-methyl-6-[4-(3-pyridin-3-ylmethyl-ureido)-phenyl]-nicotinamide] |  | 28 | 34
10 | CCNc1nc(-c2ccc(NC(=O)NCc3ccc(N)nc3)cc2)ccc1C(=O)NC [Compound 21, 6-{-4-[3-(6-Amino-pyridin-3-ylmethyl)-ureido]-phenyl}-2-ethylamino-N-methyl-nicotinamide] | 223 to 226 |  | 
11 | CNC(=O)c1ccc(-c2ccc(NC(=O)NCc3cccnc3)cc2)nc1Nc1ccccc1 [Compound 22, N-Methyl-2-phenylamino-6-[4-(3-pyridin-3-ylmethyl-ureido)-phenyl]-nicotinamide] | 234 to 236 | 0.1 | 0.1
12 | CNC(=O)c1ccc(-c2ccc(NC(=O)NCc3cccnc3)cc2)nc1NC1CC1 [Compound 23, 2-Cyclopropylamino-N-methyl-6-[4-(3-pyridin-3-ylmethyl-ureido)-phenyl]-nicotinamide] |  | 0.1 | 0.1
13 | CCN(CC)c1nc(-c2ccc(NC(=O)NCc3cccnc3)cc2)ccc1C(=O)NC [Compound 25, 2-Diethylamino-N-methyl-6-[4-(3-pyridin-3-ylmethyl-ureido)-phenyl]-nicotinamide] |  | 1.7 | 2.2
14 | CCNc1nc(-c2ccc(NC(=O)NCc3cccnc3)cc2)ccc1C(=O)NCCO [Compound 26, 2-Ethylamino-N-(2-hydroxy-ethyl)-6-[4-(3-pyridin-3-ylmethyl-ureido)-phenyl]-nicotinamide] |  | 4.4 | 6.3
15 | CCNc1nc(-c2ccc(NC(=O)OCc3cccnc3)cc2)ccc1C(=O)NC [Compound 29, [4-(6-Ethylamino-5-methylcarbamoyl-pyridin-2-yl)-phenyl]-carbamic acid pyridin-3-ylmethyl ester] | 234 to 235 |  | 
16 | O=C(NCc1cccnc1)Nc1ccc(-c2ccc(C(=O)NCCN3CCCC3)c(Nc3ccccc3)n2)cc1 [Compound 33, 2-Phenylamino-6-[4-(3-pyridin-3-ylmethyl-ureido)-phenyl]-N-(2-pyrrolidin-1-yl-ethyl)-nicotinamide] |  | 0.3 | 0.37
17 | CCNc1nc(-c2ccc(NC(=O)NCc3cccnc3)cc2)ncc1C(=O)NC [Compound 47, 4-Ethylamino-2-[4-(3-pyridin-3-ylmethyl-ureido)-phenyl]-pyrimidine-5-carboxylic acid methylamide] |  | 10 | 11
18 | CNC(=O)c1ccc(-c2ccc(NC(=O)NCc3cccnc3)cc2)nc1N1CCCC1 [Compound 49, N-Methyl-6-[4-(3-pyridin-3-ylmethyl-ureido)-phenyl]-2-pyrrolidin-1-yl-nicotinamide] |  | 316 | 331
19 | CNC(=O)c1ccc(-c2ccc(NC(=O)NCc3cccnc3)cc2)nc1NCCOC [Compound 51, 2-(2-Methoxy-ethylamino)-N-methyl-6-[4-(3-pyridin-3-ylmethyl-ureido)-phenyl]-nicotinamide] |  | 78 | 77
20 | CCNc1cc(-c2ccc(NC(=O)NCc3cccnc3)cc2)ncc1C(=O)NC [Compound 55, 4-Ethylamino-N-methyl-6-[4-(3-pyridin-3-ylmethyl-ureido)-phenyl]-nicotinamide] |  | 45 | 35
21 | CCNc1cc(-c2ccc(NC(=O)NCc3cccnc3)cc2)ccc1C(=O)NC [Compound 62, 3-Ethylamino-4′-(3-pyridin-3-ylmethyl-ureido)-biphenyl-4-carboxylic acid methylamide] |  | 1.2 | 2.5
22 | CCNc1nc(-c2ccc(NC(=O)/C=C/c3cccnc3)cc2)ccc1C(=O)NCCN(C(C)C)C(C)C [Compound 74, N-(2-Diisopropylamino-ethyl)-2-ethylamino-6-[4-((E)-3-pyridin-3-yl-acryloylamino)-phenyl]-nicotinamide] |  | 21 | 116
23 | CCNc1nc(-c2ccc(NC(=O)NCc3ccc(N)nc3)cc2)ccc1C(=O)NCCN1CCCCC1 [Compound 81, 6-{-4-[3-(6-Amino-pyridin-3-ylmethyl)-ureido]-phenyl}-2-ethylamino-N-(2-piperidin-1-yl-ethyl)-nicotinamide] |  | 0.1 | 0.1
24 | CCNc1nc(-c2ccc(NC(=O)NCc3ccc(N)nc3)cc2)ccc1C(=O)NCCN1CC[S+]([O-])CC1 [Compound 103, 6-{-4-[3-(6-Amino-pyridin-3-ylmethyl)-ureido]-phenyl}-2-ethylamino-N-[2-(1-oxo-1-thiomorpholin-4-yl)-ethyl]-nicotinamide] |  | 3 | 1.8
25 | CCNc1nc(-c2ccc(NC(=O)NCc3ccc(NC(=O)C(C)C)nc3)cc2)ccc1C(=O)NCCN1CCCCC1 [Compound 107, 2-Ethylamino-6-{4-[3-(6-isobutyrylamino-pyridin-3-ylmethyl)-ureido]-phenyl}-N-(2-piperidin-1-yl-ethyl)-nicotinamide] |  | 105 | 221
26 | CCNc1nc(-c2ccc(NC(=O)NCc3ccc(NC(C)C)nc3)cc2)ccc1C(=O)NCCN1CCCCC1 [Compound 108, 2-Ethylamino-6-{-4-[3-(6-isopropylamino-pyridin-3-ylmethyl)-ureido]-phenyl}-N-(2-piperidin-1-yl-ethyl)-nicotinamide] |  | 345 | 271
27 | CCNc1nc(-c2ccc(NC(=O)NCc3ccc(N)nc3)cc2)ccc1C(=O)NCCN1C[C@@H](C)O[C@@H](C)C1 [Compound 114, 6-{-4-[3-(6-Amino-pyridin-3-ylmethyl)-ureido]-phenyl}-N-[2-(cis-2,6-dimethyl-morpholin-4-yl)-ethyl]-2-ethylamino-nicotinamide] |  | 0.1 | 0.1
